Test results: patent US20230212222A1 (ANYGEN CO., LTD., priority 2020, published 2023)

Legend:
[1] = system: adipose tissue (white adipose tissue, WAT); experiment: lipolytic ability (secreted glycerol) in adipose tissue (WAT); format: cell-based, mice
Experimental: In addition, lipolytic ability according to the HKFY-34 treatment by concentration (100 nM, 500 nM, […] (FIG. 84). When the signal of lipolysis is transmitted, lipid droplet glycerol and free fatty acid in adipocytes are secreted as final products and come out of the cell. At this time, the degree of lipolysis can be confirmed by quantifying the secreted glycerol. Isoproterenol, a positive control group, is an agonist of β-adrenergic receptors and mainly promotes lipolytic ability in adipocytes.

rat islet = experiment: glucose-dependent insulin secretion in isolated rat islets (rat insulin ELISA); format: cell-based; conditions: 1 nM to 100 μM, 2.8 mM or 28 mM glucose
Experimental: In addition, the glucose-dependent insulin secretion ability of the HKFY derivative for rat islet was confirmed (FIG. 76).
Specifically, the pancreas was extracted from a 8-week-old SD rat (Damul Science), and islets were isolated. The isolated islets were treated with HKFY-34 at different concentrations (1 nM, 10 nM, 100 nM, 1 μM, 10 μM and 100 μM) in 2.8 mM or 28 mM glucose, and then the amount of the secreted insulin was measured using a rat insulin ELISA.

GPR39 KO mice = experiment: glucose tolerance test in GPR39 KO mouse model induced by a high-fat diet; format: in vivo; conditions: 16, 17 and 18-week-old GPR39 KO mice, high-fat feed, 0.5, 1, 5 and 10 mg/kg subcutaneously
Experimental: In addition, the glucose tolerance level in the GPR39 KO mouse model induced by a high-fat diet according to the HKFY derivative treatment was analyzed (FIG. 91).
Specifically, obesity was induced by providing male GPR39 KO mice (6 to 7-week-old, Central Lab. Animal Inc.) with a high-fat feed (60% fat chow) for 5-6 weeks. HKFY-34 was administered subcutaneously at a concentration of 0.5, 1, 5 and 10 mg/kg, respectively, to the 16, 17 or 18-week-old GPR39 KO mice, in which obesity was induced. After 30 minutes, glucose (1.5 g/kg) was intraperitoneally administered. After 0, 15, 30, 45, 60, 90, 120 and 180 minutes, blood was collected from the tail of the mice, and the blood glucose was measured with a blood glucose meter (acc-check, Roche, Germany) to analyze the glucose tolerance.

TRHR = molecular target: T1, TRHR (Homo sapiens, UniProt P34981); experiment: luciferase assay system, ghrelin receptor family selectivity; format: cell-based; conditions: compared with intrinsic ligand, FIG. 74
T1 construct: expressed in transfected cells
T1 sequence (P34981 whole entry, species assumed): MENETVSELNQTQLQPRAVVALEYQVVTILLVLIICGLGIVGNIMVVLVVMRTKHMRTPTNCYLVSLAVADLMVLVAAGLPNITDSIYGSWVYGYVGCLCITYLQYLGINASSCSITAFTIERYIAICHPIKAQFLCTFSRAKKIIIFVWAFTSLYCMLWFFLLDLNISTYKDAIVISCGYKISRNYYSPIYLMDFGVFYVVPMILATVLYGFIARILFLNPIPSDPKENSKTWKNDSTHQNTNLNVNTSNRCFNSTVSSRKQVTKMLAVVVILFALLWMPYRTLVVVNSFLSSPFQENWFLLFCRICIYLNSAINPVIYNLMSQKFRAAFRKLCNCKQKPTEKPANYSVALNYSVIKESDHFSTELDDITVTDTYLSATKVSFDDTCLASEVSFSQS
Experimental: (§1) In addition, through the activity test of the HKFY derivatives for similar receptors to GPR39, ghrelin receptor family (ghrelin receptor (GHSR), motilin receptor (MTLR), neurotensin receptor (NTSR1 & NTSR2), neuromedin U receptor (NMU1 & NMU2), TRH (thyrotropin releasing hormone) receptor (TRHR)), the selectivity and specificity for the GPR39 receptor were confirmed.
(§2) Specifically, the degree of activity between the intrinsic ligand and HKFY-34 for each receptor was analyzed using a luciferase assay system (FIG. 74).

NTSR2 = molecular target: T2, NTSR2 (Homo sapiens, UniProt O95665); experiment: as above; format: cell-based; conditions: compared with intrinsic ligand, FIG. 74
T2 construct: expressed in transfected cells
T2 sequence (O95665 whole entry, species assumed): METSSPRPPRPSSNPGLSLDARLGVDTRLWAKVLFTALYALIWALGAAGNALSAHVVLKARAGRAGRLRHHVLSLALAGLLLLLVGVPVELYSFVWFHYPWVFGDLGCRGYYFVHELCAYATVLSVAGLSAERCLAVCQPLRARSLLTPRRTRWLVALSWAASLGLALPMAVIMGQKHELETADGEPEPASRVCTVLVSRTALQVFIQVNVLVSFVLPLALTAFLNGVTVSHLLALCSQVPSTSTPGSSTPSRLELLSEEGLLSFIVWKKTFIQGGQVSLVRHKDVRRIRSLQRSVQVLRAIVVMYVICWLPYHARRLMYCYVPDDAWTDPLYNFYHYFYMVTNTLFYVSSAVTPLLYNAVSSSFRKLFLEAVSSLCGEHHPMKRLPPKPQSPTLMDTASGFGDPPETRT
Experimental: as §1, §2

MTLR = molecular target: T3, MTLR (Homo sapiens, UniProt O43193); experiment: as above; format: cell-based; conditions: compared with intrinsic ligand, FIG. 74
T3 construct: expressed in transfected cells
T3 sequence (O43193 whole entry, species assumed): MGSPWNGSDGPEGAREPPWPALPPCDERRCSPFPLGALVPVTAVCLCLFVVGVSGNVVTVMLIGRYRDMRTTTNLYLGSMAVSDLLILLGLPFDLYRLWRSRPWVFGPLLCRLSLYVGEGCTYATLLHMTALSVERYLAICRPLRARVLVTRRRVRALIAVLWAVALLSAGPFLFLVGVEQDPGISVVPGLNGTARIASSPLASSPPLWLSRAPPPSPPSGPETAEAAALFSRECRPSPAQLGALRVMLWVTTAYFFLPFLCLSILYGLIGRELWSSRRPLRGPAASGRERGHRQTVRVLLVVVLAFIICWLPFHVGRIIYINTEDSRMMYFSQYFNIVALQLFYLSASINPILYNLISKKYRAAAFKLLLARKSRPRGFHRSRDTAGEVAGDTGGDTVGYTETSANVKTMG
Experimental: as §1, §2

NMU1 = molecular target: T4, NMU1 (Homo sapiens, UniProt Q9HB89); experiment: as above; format: cell-based; conditions: compared with intrinsic ligand, FIG. 74
T4 construct: expressed in transfected cells
T4 sequence (Q9HB89 whole entry): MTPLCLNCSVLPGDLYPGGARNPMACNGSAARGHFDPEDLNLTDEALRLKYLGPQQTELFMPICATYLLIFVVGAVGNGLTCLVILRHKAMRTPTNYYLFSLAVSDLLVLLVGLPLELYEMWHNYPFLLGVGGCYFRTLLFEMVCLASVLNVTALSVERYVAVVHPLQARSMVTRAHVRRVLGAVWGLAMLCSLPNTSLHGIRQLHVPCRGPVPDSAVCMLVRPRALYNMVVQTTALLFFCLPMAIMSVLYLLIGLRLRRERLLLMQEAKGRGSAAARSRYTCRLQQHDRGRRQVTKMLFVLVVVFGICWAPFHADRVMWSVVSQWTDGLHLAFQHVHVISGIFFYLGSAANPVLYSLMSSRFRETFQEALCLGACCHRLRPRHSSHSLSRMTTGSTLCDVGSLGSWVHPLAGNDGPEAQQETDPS
Experimental: as §1, §2

NMU2 = molecular target: T5, NMU2 (Homo sapiens, UniProt Q9GZQ4); experiment: as above; format: cell-based; conditions: compared with intrinsic ligand, FIG. 74
T5 construct: expressed in transfected cells
T5 sequence (Q9GZQ4 whole entry, species assumed): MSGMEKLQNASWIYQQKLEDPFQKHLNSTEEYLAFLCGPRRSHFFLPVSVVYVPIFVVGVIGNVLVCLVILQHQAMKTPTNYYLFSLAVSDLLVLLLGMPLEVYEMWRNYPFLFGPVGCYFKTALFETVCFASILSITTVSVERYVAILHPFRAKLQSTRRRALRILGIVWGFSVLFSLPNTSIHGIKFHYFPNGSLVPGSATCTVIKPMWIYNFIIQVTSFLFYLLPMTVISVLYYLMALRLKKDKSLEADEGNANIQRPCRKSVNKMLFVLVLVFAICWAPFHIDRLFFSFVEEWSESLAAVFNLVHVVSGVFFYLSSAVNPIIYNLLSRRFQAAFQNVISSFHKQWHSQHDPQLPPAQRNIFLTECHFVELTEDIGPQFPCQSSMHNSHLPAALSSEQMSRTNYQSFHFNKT
Experimental: as §1, §2

NTSR1 = molecular target: T6, NTSR1 (Homo sapiens, UniProt P30989); experiment: as above; format: cell-based; conditions: compared with intrinsic ligand, FIG. 74
T6 construct: expressed in transfected cells
T6 sequence (P30989 whole entry, species assumed): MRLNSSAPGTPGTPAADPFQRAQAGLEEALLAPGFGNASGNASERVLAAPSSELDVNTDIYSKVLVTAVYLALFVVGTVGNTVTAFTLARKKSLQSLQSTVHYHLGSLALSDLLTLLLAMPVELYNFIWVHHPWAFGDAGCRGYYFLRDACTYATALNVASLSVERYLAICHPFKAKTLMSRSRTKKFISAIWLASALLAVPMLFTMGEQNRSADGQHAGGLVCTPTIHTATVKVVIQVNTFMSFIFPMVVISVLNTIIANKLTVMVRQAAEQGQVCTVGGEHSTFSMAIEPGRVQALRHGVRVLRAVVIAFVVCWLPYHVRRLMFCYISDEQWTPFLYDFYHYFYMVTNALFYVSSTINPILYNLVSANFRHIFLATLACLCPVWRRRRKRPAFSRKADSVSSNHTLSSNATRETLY
Experimental: as §1, §2

GHSR = molecular target: T7, GHSR (Homo sapiens, UniProt Q92847); experiment: as above; format: cell-based; conditions: compared with intrinsic ligand, FIG. 74
T7 construct: expressed in transfected cells
T7 sequence (Q92847 whole entry, species assumed): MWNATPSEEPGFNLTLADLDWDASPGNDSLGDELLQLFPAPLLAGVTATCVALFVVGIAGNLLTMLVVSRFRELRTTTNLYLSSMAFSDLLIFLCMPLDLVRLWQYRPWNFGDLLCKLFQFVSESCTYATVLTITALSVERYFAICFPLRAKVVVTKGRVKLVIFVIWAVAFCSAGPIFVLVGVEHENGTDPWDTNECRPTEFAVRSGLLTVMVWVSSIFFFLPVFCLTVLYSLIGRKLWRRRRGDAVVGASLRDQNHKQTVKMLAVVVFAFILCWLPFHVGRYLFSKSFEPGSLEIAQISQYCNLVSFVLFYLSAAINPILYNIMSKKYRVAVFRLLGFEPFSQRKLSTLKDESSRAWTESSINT
Experimental: as §1, §2

[2] = system: HSL, ATGL and Perilipin A in 3T3-L1 cells; experiment: mRNA expression of lipolysis signaling factors by RT-PCR in 3T3-L1 cells; format: cell-based; conditions: versus isoproterenol positive control
Experimental: (§3) In addition, the mRNA expression levels of HSL (hormone-sensitive lipase), ATGL (adipose triglyceride lipase) and Perilipin A, which are important factors for lipolysis signaling according to HKFY-34 treatment, were analyzed through RT-PCR (FIG. 79). […] In addition, it was confirmed that the mRNA expression of all factors was enhanced due to GPR39 through GPR39 siRNA (FIGS. 81 to 83).

[3] = system: HSL, ATGL and Perilipin A in WAT cells; experiment: mRNA expression of lipolysis signaling factors by RT-PCR in WAT; format: cell-based, mice; conditions: versus isoproterenol positive control
Experimental: as §3

[4] = system: INS-1, a rat insulinoma cell; experiment: glucose-dependent insulin secretion ability test in INS-1 (rat insulin ELISA); format: cell-based
Experimental: In this regard, in order to confirm the effect of the HKFY derivative, a candidate GPR39 agonist, on insulin secretion ability, a glucose-dependent insulin secretion ability test was performed in INS-1 (Korea Cell Line Bank), a rat insulinoma cell (FIG. 75).
Specifically, when INS-1 cells were treated with 1 or 10 μM of HKFY-34 in 2.8 mM glucose similar to a physiological blood glucose level or 11.1 mM glucose, a high blood glucose level, the insulin secretion ability was confirmed using a rat insulin ELISA.
In addition, through GPR39 knock-down experiment using GPR39 siRNA, it was confirmed that HKFY-34 enhances insulin secretion through the GPR39 receptor.

GPR39 = molecular target: T8, GPR39 (Homo sapiens, UniProt O43194)
T8 sequence (O43194 1-453): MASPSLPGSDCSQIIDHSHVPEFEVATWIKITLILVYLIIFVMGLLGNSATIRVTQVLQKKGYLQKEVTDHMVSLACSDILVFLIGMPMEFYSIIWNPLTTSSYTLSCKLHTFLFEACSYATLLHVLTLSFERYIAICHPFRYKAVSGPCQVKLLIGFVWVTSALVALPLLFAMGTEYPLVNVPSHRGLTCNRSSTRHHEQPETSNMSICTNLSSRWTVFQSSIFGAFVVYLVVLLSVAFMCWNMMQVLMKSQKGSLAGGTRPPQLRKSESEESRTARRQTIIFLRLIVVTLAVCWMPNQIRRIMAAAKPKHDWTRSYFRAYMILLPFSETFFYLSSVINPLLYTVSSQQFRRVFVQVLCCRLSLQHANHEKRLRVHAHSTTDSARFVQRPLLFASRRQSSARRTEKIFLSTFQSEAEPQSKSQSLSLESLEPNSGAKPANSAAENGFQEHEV
Experimental: Specifically, the fibroblast cell line CV-1 (1×10^5 cells/ml, Korea Cell Line Bank) was cultured in a 96 well cell culture plate for 24 hours, and then treated with GPR39 inserted into adenovirus and SRE (serum response element) luciferase at 50 MOI (multiplicity of infection) and 25 MOI virus for 3 hours, respectively, and then cultured for 24 hours.

Structure (SMILES): CCCCCCCC(=O)NCCCC[C@H](NC(=O)[C@@H](N)Cc1cn(C(c2ccccc2)c2ccccc2)cn1)C(=O)N[C@H](Cc1ccc(C)cc1)C(=O)N[C@@H](Cc1ccc(O)cc1)C(=O)O [HKFY-34, ((R)-2-((S)-2-((S)-2-amino-3-(1-benzhydryl-1H-imidazol-4-yl)propanamido)-6-octanamidohexanamido)-3-(p-tolyl)propanoyl)-L-tyrosine]
- lipolytic ability ([1]; HKFY-34 concentration 10 μM or higher): significantly increased
- lipolytic ability ([1]; by concentration, FIG. 84): increased in a concentration dependent manner
- insulin secretion ability (rat islet): concentration dependent (dose-dependent) manner
- glucose tolerance (GPR39 KO mice): significant glucose tolerance was not observed
- activity for TRHR (TRHR): very low
- activity for NTSR2 (NTSR2): very low
- activity for MTLR (MTLR): very low
- activity for NMU1 (NMU1): very low
- activity for NMU2 (NMU2): very low
- activity for NTSR1 (NTSR1): very low
- activity for GHSR (GHSR): very low
- mRNA expression of ATGL [2]: increased to a degree similar to that of isoproterenol
- mRNA expression of HSL [2]: increased to a degree similar to that of isoproterenol
- mRNA expression of Perilipin A [2]: increased to a degree similar to that of isoproterenol
- mRNA expression of ATGL [3]: increased to a degree similar to that of isoproterenol
- mRNA expression of HSL [3]: increased to a degree similar to that of isoproterenol
- mRNA expression of Perilipin A [3]: increased to a degree similar to that of isoproterenol
- insulin secretion ([4]; INS-1, high blood glucose level (11.1 mM glucose), 1 or 10 μM): enhanced at all treatment concentrations
- change in insulin secretion level ([4]; INS-1, low blood glucose level (2.8 mM glucose), 1 or 10 μM): insignificant
- insulin secretion ability ([4]; cells treated with GPR39 siRNA compared to scrambled siRNA, 11.1 mM glucose): not increased
- ECmax (-fold induction over basal) (GPR39): 22.39 ± 4.59 -fold induction over basal
- Reporter gene assay ECmax (-fold induction over basal) (GPR39): 22.39 ± 4.59 -fold induction over basal
